# Entries after “also recorded” stand apart in the source; their conditions may differ. Where two headings read alike, the source gives them in different places.
# How the values were obtained:
# [1] = system: P. berghei ookinete formation; experiment: P. berghei ookinete development assay; type: cell-based, Plasmodium berghei; conditions: 10 µM
# Method: Compounds and P. berghei gametocyte-infected blood were dispensed in a 96-well plate containing ookinete medium. After 24 h at 19°C, Giemsa-stained ookinetes were counted under the microscope (×40) as previously described,[28].
# Figure 3 The transmission-blocking potential of selected antimalarials in three bioassays that cover different phases of Plasmodium vector stage development. (A) Assays examined exflagellation (P. falciparum), ookinete formation (P. berghei), or oocyst formation (P. falciparum). All antimalarials were screened at 10 µM. (B) The biological content of the in vitro P. berghei ookinete assay spans gamete formation, fertilization, zygote development, and ookinete formation. Ookinete formation was insensitive to most of the antimalarials tested. […] (D) The in vitro P. falciparum exflagellation assay exposes mature gametocytes to antimalarials for 24 h before triggering exflagellation. […] All experiments in triplicate. (E) The in vivo P. falciparum oocyst assay differs from the P. berghei oocyst assay in that mature gametocytes were exposed to the antimalarials in culture for 24 h before feeding to mosquitoes. […] NPC1161-B, lumefantrine, halofantrine, and mefloquine +RS isomer were also active. (n = 4–61 observations; average ± standard error of the mean [SEM]).
# [2] = system: P. falciparum asexual blood stage parasites (strains NF54, D6, K1, W2, 7G8, TM90C2A, V1/S); experiment: [3H]-hypoxanthine incorporation growth inhibition assay, asexual blood stage; type: cell-based, Plasmodium falciparum; conditions: Plasmodium falciparum
# [3] = system: P. falciparum mature gametocytes / male gamete exflagellation; experiment: P. falciparum exflagellation assay; type: cell-based, Plasmodium falciparum; conditions: for inhibition at 10 µM: Plasmodium falciparum
# [4] = 10 µM, 24 h exposure of mature gametocytes
SMILES,effect on ookinete formation [1],IC50 ([2]; strain 7G8),IC50 ([2]; strain NF54),"effect on exflagellation (words) [3, 4]","effect on exflagellation (words) ([3]; 10 µM, 24 h exposure of mature gametocytes, listed as NPC1161-B)","inhibition at 10 µM ([3]; read-out: inhibition of exflagellation, 10 µM, 24 h exposure of mature gametocytes)","inhibition at 10 µM ([3]; 10 μM, box linked to gametocytes/exflagellation, read-out: Inhibition at 10 μM (gametocytes/exflagellation, Figure 5))",IC50 [2],"IC50 ([2]; multi-drug-resistant strains K1, W2 and 7G8)","enhancement (stimulation) of exflagellation [3, 4]"
COc1cc(N[C@H](C)CCCN)c2nccc(C)c2c1Oc1ccc(Cl)c(Cl)c1 [NPC-1161B],all assays except the ookinete assay,~50 nM,~500 nM,inhibited exflagellation totally; also recorded: inhibit exflagellation in vitro; also recorded: inhibited both exflagellation and oocyst production,showed potency,> 70%,> 60%,,,
CCCCN(CCCC)CCC(O)c1cc2c(Cl)cc(Cl)cc2c2cc(C(F)(F)F)ccc12 (centres unmarked) [halofantrine],,,,only moderate or no inhibition of exflagellation,,,,< 4 nM,0.3 nM,45%

# Reference: article PMC3283556, “The Activities of Current Antimalarial Drugs on the Life Cycle Stages of Plasmodium: A Comparative Study with Human and Rodent Parasites” (PLoS Medicine, 2012)
